Patent US12559449B2, “Aromatic ring or heteroaromatic ring derivatives, preparation method therefor and use thereof” (ZHEJIANG HISUN PHARMACEUTICAL CO., LTD., priority 2019, dated 2026)
Read-outs that look alike come from different tables or passages of the source.

Columns and labels:
[1] = molecular target: T1, human AT2R (Homo sapiens, UniProt P50052); test: Antagonistic activity on the binding of human AT2R ligand (Tag-lite HTRF ligand binding, Tb-labeled-AT2R cells); details: red agonist fluorescent ligand, 1 hour room temperature
T1 construct: Tb (terbium) label on the receptor; expressed in transfected cells
T1 sequence (P50052 1-363): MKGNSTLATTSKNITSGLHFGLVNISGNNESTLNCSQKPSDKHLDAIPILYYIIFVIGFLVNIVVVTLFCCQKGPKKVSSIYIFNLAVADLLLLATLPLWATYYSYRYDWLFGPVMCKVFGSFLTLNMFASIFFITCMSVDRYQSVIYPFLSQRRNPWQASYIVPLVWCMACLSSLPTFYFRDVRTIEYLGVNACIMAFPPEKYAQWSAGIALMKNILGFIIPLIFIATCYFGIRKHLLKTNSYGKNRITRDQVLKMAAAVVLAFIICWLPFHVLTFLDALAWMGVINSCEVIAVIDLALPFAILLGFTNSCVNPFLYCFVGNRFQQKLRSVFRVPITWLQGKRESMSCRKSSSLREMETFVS
Protocol: Test Example 1 Test of the Antagonistic Activity of the Compound of the Present Disclosure on the Binding of Human AT2R Ligand
Angiotensin II Type 2 Receptor (AT2R) is involved in neuron differentiation and regeneration, cell proliferation and angiogenesis, and maintenance of bone mass. […] The following method uses the AT2 ligand binding test to study the degree of antagonism of the compounds of the present disclosure to AT2R.
2. Reagent Preparation • (1) 10 mM of angiotensin II human: 10 mg of Angiotensin II human (purity 99.09%) was dissolved in 0.947 mL of deionized water, aliquoted and stored at −80° C.; • (2) Preparation of compound stock solution
3. […] 4. Experimental Results

[2] = molecular target: T2, AT1R (Homo sapiens, UniProt P30556); test: Antagonistic activity on AT1R, same method with Tb-labeled-AT1R cells; assay type: binding
T2 construct: Tb (terbium) label on the receptor; expressed in transfected cells
T2 sequence (P30556 1-359): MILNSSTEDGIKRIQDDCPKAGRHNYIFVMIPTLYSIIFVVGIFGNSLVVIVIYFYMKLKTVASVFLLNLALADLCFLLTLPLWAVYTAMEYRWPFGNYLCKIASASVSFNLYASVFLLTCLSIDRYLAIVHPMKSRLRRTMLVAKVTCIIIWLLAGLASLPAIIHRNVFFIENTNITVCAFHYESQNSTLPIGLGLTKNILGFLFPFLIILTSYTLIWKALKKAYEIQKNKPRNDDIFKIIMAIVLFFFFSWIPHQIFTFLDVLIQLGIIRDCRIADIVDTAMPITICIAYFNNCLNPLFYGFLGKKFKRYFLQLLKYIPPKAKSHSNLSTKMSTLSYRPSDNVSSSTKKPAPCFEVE

[3] = Metabolic stability in rat liver microsomes; assay type: in vitro ADME; details: pH 7.4; rat liver microsomes 0.5 mg/mL, 1 μM compound, NADPH 1 mM, 0-60 min; read-out: half-life/(T1/2, min)
Protocol: Test Example 2. Study on the Metabolic Stability of the Compounds of the Present Disclosure in Rat Liver Microsomes
The purpose of this experimental study is to study the metabolic stability of the compounds of the present disclosure in rat liver microsomes.
The test compounds were co-incubated with rat liver microsomes, and the coenzyme NADPH was added to initiate the reaction. At 0, 5, 15, 30, and 60 minutes, 20 μL of incubation solution was taken out and transferred to 200 μL of acetonitrile containing internal standard to stop the reaction. After protein precipitation, it was centrifuged at 3,700 rpm for 10 minutes. The supernatant was taken and analyzed by LC-MS/MS method after being diluted at 1:1 with water. According to the elimination half-life of the test compound in the incubation system, the in vitro clearance rate was calculated. Midazolam was used as the internal reference compound and incubated for 2 copies in parallel.
The ratio of analyte/internal standard peak area (Aanalyte/AIS) was obtained from the instrument, and the remaining percentage (% Control) was calculated as the ratio of Aanalyte/AIS in the non-zero time point sample to the zero time point sample. Ln (% Control) versus incubation time was plotted and subjected to a linear fitting. The clearance constant (k, min-) and clearance half-life (T1/2, min) of the test compounds were calculated by the following equations.
[formula] 4. Experimental Results

[4] = Pharmacokinetics in SD rats, intravenous injection or intragastric administration; assay type: in vivo; details: for half-life / MRT / bioavailability / Cmax: male, Sprague-Dawley, rat, plasma; for half-life: read-out: half-life T1/2 (converted); for MRT: read-out: residence time MRT; for bioavailability: read-out: bioavailability F; for Cmax: read-out: drug concentration in blood, Cmax
Excerpt: Test Example 3. Study on Oral Pharmacokinetics of the Compounds of the Present Disclosure in SD Rats
SD rats were taken as the test animals. The LC/MS/MS method was used to determine the intravenous injection or intragastric administration of the compounds of the present disclosure in rats, and to determine the drug concentration in plasma at different time points to study the pharmacokinetic characteristics of the compounds of the present disclosure in rats.
Experimental drugs: Olodanrigan, compounds 12, 14, 15 and 16 of the present disclosure;
Animals: 30 healthy adult Sprague Dawley (SD) male rats, purchased from Weitong Lihua Experimental Animal Technology Co. Ltd., production license number: 11400700271077.
An appropriate amount of samples were weighed, and added with DMA, solutol HS 15 (30%, w/v) and normal saline respectively, and then subjected to ultrasound and filtered through PTFE membrane to make a 0.2 mg/mL solution.
An appropriate amount of samples were weighed, added with 0.5% sodium carboxymethyl cellulose (CMC-Na) (containing 0.5% Tween 80), and ultrasonically prepared into a 1 mg/mL suspension. […]
About 0.2 mL of blood was collected from the jugular vein before administration and at 0.083 hours, 0.25 hours, 0.5 hours, 1 hour, 2 hours, 4 hours, 8 hours, 12 hours, and 24 hours after administration, and heparin sodium was used for anticoagulation. The blood samples were collected on ice and centrifuged to separate the plasma (centrifugation conditions: 1500 g, 10 minutes). The collected plasma was stored at −40 to −20° C. before analysis.
10 μL of plasma sample was taken and added with 400 μL of acetonitrile (comprising internal standard working solution which contained verapamil 5 ng/mL and glibenclamide 50 ng/mL). It was vortexed for 10 minutes, centrifuge at 3700 rpm for 10 minutes. 70 μL of the supernatant was taken and added with 70 μL of water, and vortexed for 10 minutes. 2 μL of the mixed solution was taken and injected into LC-MS/MS for sample analysis.

[5] = oral (3 mg/kg) versus injection (1 mg/kg)
[6] = 3 mg/kg, oral (mg/kg), dose not given
[7] = oral (mg/kg), dose figure not given, versus injection (1 mg/kg)

CN(C(=O)C(c1ccccc1)c1ccccc1)c1ccc(N2CCCOc3ccc(F)cc32)cc1C(=O)O [Compound 4, 5-(7-fluoro-3,4-dihydrobenzo[b][1,4]oxazepine-5(2H)-yl)-2-(N-methyl-2,2-diphenylacetamido)benzoic acid]
IC50 [1]: 37 nM | IC50 [2]: > 10 µM | half-life at 1 μM [3]: 185 min

CN(C(=O)C(c1ccccc1)c1ccccc1)c1cnc(N2CCCOc3ccc(F)cc32)cc1C(=O)O [Compound 5, 2-(7-fluoro-3,4-dihydrobenzo[b][1,4]oxazepine-5(2H)-yl)-5-(N-methyl-2,2-diphenylacetamido)isonicotinic acid]
IC50 [1]: 10 nM | IC50 [2]: > 10 µM

CN(C(=O)C(c1ccccc1)c1ccccc1)c1cnc(N2CCCOc3cc(F)c(F)cc32)cc1C(=O)O [Compound 6, 2-(7,8-difluoro-3,4-dihydrobenzo[b][1,4]oxazepine-5(2H)-yl)-5-(N-methyl-2,2-diphenylacetamido)isonicotinic acid]
IC50 [1]: 26 nM | IC50 [2]: > 10 µM

CN(C(=O)C(c1ccccc1)c1ccccc1)c1ccc(N2CCCOc3ccc(F)cc32)nc1C(=O)O [Compound 8, 6-(7-fluoro-3,4-dihydrobenzo[b][1,4]oxazepine-5(2H)-yl)-3-(N-methyl-2,2-diphenylacetamido)picolinic acid]
IC50 [1]: 28 nM | IC50 [2]: > 10 µM

O=C(O)c1cc(N2CCCOc3ccc(F)cc32)ncc1-c1nc2ccccc2o1 [Compound 12, 5-(benzo[d]oxazol-2-yl)-2-(7-fluoro-3,4-dihydrobenzo[b][1,4]oxazepine-5(2H)-yl)isonicotinic acid]
half-life at 1 μM [3]: 288 min | area under curve AUO0-∞ ([4]; injection (1 mg/kg)): 16.2 ± 3.53 µg·h/mL | half-life ([4]; iv, injection (1 mg/kg)): 8.1 ± 2.1 h | MRT ([4]; iv, injection (1 mg/kg)): 7.3 ± 1.5 h | bioavailability [4, 5]: 83.1% | Cmax ([4]; oral (3 mg/kg)): 8.65 ± 6.02 µg/mL | half-life ([4]; oral (3 mg/kg)): 4.7 ± 0.3 h | MRT ([4]; oral (3 mg/kg)): 6.1 ± 0.5 h | area under curve AUO0-∞ ([4]; oral (3 mg/kg)): 40.4 ± 14.272 µg·h/mL

O=C(O)c1cc(N2CCCOc3ccc(F)cc32)ncc1-c1nc2cc(F)ccc2o1 [Compound 14, 2-(7-fluoro-3,4-dihydrobenzo[b][1,4]oxazepine-5(2H)-yl)-5-(5-fluorobenzo[d]oxazol-2-yl)isonicotinic acid]
half-life at 1 μM [3]: 600 min | area under curve AUO0-∞ ([4]; injection (1 mg/kg)): 13.8 ± 1.37 µg·h/mL | half-life ([4]; iv, injection (1 mg/kg)): 4.7 ± 0.4 h | MRT ([4]; iv, injection (1 mg/kg)): 4.5 ± 0.2 h | bioavailability [4, 5]: 105% | Cmax ([4]; oral (3 mg/kg)): 14.3 ± 5.13 µg/mL | half-life ([4]; oral (3 mg/kg)): 3.6 ± 0.2 h | MRT ([4]; oral (3 mg/kg)): 4.7 ± 0.3 h | area under curve AUO0-∞ ([4]; oral (3 mg/kg)): 43.4 ± 11.173 µg·h/mL

O=C(O)c1cc(N2CCCOc3ccc(F)cc32)ncc1-c1nc2ccc(F)cc2o1 [Compound 15, 2-(7-fluoro-3,4-dihydrobenzo[b][1,4]oxazepine-5(2H)-yl)-5-(6-fluorobenzo[d]oxazol-2-yl)isonicotinic acid]
half-life at 1 μM [3]: 160 min | area under curve AUO0-∞ ([4]; injection (1 mg/kg)): 12.1 ± 0.751 µg·h/mL | half-life ([4]; iv, injection (1 mg/kg)): 4.5 ± 0.4 h | MRT ([4]; iv, injection (1 mg/kg)): 4.5 ± 0.4 h | bioavailability [4, 5]: 89.9% | Cmax ([4]; oral (3 mg/kg)): 7.05 ± 2.64 µg/mL | half-life ([4]; oral (3 mg/kg)): 4.2 ± 0.4 h | MRT ([4]; oral (3 mg/kg)): 5.2 ± 0.4 h | area under curve AUO0-∞ ([4]; oral (3 mg/kg)): 32.4 ± 6.514 µg·h/mL

N#Cc1ccc2nc(-c3cnc(N4CCCOc5ccc(F)cc54)cc3C(=O)O)oc2c1 [Compound 16, 5-(6-cyanobenzo[d]oxazol-2-yl)-2-(7-fluoro-3,4-dihydrobenzo[b][1,4]oxazepine-5(2H)-yl)isonicotinic acid]
half-life at 1 μM [3]: 598 min | area under curve AUO0-∞ ([4]; injection (1 mg/kg)): 20.8 ± 1.74 µg·h/mL | Cmax [4, 6]: 5.25 ± 0.315 µg/mL | half-life [4, 6]: 3.7 ± 0.4 h | MRT [4, 6]: 5.5 ± 0.4 h | half-life ([4]; iv, injection (1 mg/kg)): 3.3 ± 0.2 h | MRT ([4]; iv, injection (1 mg/kg)): 3.2 ± 0.3 h | bioavailability [4, 7]: 41.3% | area under curve AUO0-∞ ([4]; oral (mg/kg), dose not given): 25.8 ± 6.1 µg·h/mL

COc1ccc2c(c1OCc1ccccc1)C[C@@H](C(=O)O)N(C(=O)C(c1ccccc1)c1ccccc1)C2 [olodanrigan, reference compound]
IC50 [2]: > 10 µM | half-life at 1 μM [3]: 96.3 min | area under curve AUO0-∞ ([4]; injection (1 mg/kg)): 1.23 ± 0.096 µg·h/mL | Cmax [4, 6]: 0.47 ± 0.197 µg/mL | half-life [4, 6]: 1.5 ± 0.3 h | MRT [4, 6]: 2.6 ± 1 h | half-life ([4]; iv, injection (1 mg/kg)): 1.6 ± 0.3 h | MRT ([4]; iv, injection (1 mg/kg)): 0.92 ± 0.16 h | bioavailability [4, 7]: 12.1% | area under curve AUO0-∞ ([4]; oral (mg/kg), dose not given): 1.483 ± 0.715 µg·h/mL
